Earlier results in US20220143046A1, “COMPOSITION AND METHODS FOR RECTAL DELIVERY OF 4-AAPA AND 5-ASA COMPOUNDS” (9 METERS BIOPHARMA, INC., priority 2019, published 2022).

System: toxin A-induced colonic inflammation
Settings: rats; cited from earlier US patents and McVey et al. 2005

Structure (SMILES): O=C(O)Cc1ccc(/N=N/c2ccc(O)c(C(=O)O)c2)cc1 [INN-108, 5-(4-carboxymethyl-phenylazo)-2-hydroxybenzoic acid]
- inhibition of toxin A-induced colonic inflammation: potent inhibitor
